Results reported in publication PMC8213057, “Targeting ALK2: An Open Science Approach to Developing Therapeutics for the Treatment of Diffuse Intrinsic Pontine Glioma” (Journal of Medicinal Chemistry, 2020).

Columns and labels:
CYP2D6 = target: T1, CYP2D6 (Homo sapiens, UniProt P10635); assay: CYP inhibition assay; assay type: in vitro ADME; settings: human liver microsomes
T1 construct: tissue Corning 452117; host or cells: pooled human liver microsomes (UltraPool HLM 150, mixed gender)

ALK5/TGFBR1 = target: T2, ALK5/TGFBR1 (Homo sapiens, UniProt P36897); assay: 375-member kinase panel; assay type: biochemical; settings: Run 1, Run 2; for % enzyme activity: 1 μM; for remaining activity at 1 µM: read-out: % enzyme activity, 1 μM
T2 construct: purchased Reaction Biology Corporation
T2 sequence (P36897 34-503): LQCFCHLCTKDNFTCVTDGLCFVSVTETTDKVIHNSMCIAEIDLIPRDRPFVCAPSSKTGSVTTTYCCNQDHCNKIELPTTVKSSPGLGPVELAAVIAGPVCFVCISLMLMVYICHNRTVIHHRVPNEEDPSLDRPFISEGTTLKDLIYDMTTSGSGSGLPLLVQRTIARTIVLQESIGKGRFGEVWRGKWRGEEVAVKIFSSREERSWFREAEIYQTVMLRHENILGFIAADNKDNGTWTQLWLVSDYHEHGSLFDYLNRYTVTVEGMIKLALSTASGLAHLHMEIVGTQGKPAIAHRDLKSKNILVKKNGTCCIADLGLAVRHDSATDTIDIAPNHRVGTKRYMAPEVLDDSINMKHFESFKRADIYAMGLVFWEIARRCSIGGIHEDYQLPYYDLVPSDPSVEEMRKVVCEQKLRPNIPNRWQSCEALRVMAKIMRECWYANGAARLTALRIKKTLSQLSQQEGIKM

FAK/PTK2 = FAK/PTK2 (Homo sapiens, UniProt Q05397); settings: 1 μM; Run 1, Run 2
PLK3 = PLK3 (Homo sapiens, UniProt Q9H4B4); settings: 1 μM; Run 1, Run 2
PRKX = target: T3, PRKX (Homo sapiens, UniProt P51817); settings: 1 μM; Run 1, Run 2
T3 sequence (P51817 1-358): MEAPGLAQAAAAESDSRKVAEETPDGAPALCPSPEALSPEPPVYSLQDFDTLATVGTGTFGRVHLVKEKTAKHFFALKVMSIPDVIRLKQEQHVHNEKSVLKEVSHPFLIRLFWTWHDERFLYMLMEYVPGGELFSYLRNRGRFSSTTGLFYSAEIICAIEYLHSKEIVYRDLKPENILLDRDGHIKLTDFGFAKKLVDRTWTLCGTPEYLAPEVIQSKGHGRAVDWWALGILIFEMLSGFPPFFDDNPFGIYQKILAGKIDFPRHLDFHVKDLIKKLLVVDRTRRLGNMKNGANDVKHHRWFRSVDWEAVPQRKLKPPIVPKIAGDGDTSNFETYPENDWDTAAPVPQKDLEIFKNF

STK25/YSK1 = STK25/YSK1 (Homo sapiens, UniProt O00506); settings: 1 μM; Run 1, Run 2
LIMK2 = LIMK2 (Homo sapiens, UniProt P53671); assay: biochemical; settings: read-out: % enzyme activity, 1 μM; Run 1, Run 2
NEK5 = target: T4, NEK5 (Homo sapiens, UniProt Q6P3R8); assay: biochemical; settings: read-out: % enzyme activity, 1 μM; Run 1, Run 2
T4 sequence (Q6P3R8 1-708): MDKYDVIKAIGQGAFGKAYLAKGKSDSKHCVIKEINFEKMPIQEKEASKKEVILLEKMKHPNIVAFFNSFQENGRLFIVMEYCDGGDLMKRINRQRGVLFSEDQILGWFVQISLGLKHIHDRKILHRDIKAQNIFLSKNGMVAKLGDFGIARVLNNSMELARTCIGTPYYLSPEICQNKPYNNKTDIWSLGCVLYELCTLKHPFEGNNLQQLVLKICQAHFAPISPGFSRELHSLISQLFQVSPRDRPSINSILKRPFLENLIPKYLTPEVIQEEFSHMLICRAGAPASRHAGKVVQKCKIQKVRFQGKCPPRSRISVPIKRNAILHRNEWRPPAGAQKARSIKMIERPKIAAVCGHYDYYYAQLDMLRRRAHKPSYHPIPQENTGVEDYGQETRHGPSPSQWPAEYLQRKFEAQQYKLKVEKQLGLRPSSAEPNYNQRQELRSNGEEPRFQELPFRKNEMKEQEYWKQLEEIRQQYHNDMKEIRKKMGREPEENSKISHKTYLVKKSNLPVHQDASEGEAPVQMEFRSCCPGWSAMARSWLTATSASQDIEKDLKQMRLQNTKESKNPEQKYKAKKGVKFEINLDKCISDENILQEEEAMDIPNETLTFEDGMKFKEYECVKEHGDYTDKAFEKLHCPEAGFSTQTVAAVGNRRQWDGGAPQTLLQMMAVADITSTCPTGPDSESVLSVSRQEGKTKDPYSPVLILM

OSR1/OXSR1 = OSR1/OXSR1 (Homo sapiens, UniProt O95747); assay: biochemical; settings: read-out: % enzyme activity, 1 μM; Run 1, Run 2
PKCzeta = target: T5, PKCzeta (Homo sapiens, UniProt Q05513); assay: biochemical; settings: read-out: % enzyme activity, 1 μM; Run 1, Run 2
T5 sequence (Q05513 1-592): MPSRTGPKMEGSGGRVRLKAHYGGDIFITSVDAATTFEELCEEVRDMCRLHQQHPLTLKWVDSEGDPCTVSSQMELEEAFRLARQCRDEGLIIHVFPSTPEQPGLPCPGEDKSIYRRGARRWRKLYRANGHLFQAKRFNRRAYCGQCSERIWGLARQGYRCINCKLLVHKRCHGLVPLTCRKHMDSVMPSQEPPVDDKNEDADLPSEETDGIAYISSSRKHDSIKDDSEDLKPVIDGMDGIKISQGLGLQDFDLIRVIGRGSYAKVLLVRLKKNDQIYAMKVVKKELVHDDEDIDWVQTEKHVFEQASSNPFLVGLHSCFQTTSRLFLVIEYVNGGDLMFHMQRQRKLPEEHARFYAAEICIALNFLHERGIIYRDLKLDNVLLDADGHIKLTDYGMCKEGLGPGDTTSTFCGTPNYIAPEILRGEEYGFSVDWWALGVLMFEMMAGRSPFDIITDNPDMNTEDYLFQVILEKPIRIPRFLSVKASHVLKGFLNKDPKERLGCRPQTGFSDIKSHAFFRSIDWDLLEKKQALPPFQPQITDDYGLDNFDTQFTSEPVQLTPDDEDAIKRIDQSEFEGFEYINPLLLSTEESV

SBK1 = SBK1 (Homo sapiens, UniProt Q52WX2); assay: biochemical; settings: read-out: % enzyme activity, 1 μM; Run 1, Run 2
TESK2 = TESK2 (Homo sapiens, UniProt Q96S53); assay: biochemical; settings: read-out: % enzyme activity, 1 μM; Run 1, Run 2
Chain of TESK2 (Q96S53 whole entry): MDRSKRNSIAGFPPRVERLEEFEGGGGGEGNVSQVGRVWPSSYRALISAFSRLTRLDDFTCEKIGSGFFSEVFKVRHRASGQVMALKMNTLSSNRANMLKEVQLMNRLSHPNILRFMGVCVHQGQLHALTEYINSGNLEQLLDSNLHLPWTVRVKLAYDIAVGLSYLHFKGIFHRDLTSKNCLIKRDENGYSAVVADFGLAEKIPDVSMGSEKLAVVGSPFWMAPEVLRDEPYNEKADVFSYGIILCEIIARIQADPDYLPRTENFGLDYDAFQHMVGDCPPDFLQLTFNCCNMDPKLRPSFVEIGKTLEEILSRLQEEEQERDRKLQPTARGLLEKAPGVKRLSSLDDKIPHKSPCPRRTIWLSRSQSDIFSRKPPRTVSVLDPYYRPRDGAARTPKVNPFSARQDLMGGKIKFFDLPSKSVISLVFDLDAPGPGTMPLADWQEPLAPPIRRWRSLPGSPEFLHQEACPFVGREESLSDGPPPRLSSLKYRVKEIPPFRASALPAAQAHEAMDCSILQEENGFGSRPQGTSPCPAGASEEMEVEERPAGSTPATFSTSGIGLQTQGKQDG

T1 sequence (P10635 whole entry): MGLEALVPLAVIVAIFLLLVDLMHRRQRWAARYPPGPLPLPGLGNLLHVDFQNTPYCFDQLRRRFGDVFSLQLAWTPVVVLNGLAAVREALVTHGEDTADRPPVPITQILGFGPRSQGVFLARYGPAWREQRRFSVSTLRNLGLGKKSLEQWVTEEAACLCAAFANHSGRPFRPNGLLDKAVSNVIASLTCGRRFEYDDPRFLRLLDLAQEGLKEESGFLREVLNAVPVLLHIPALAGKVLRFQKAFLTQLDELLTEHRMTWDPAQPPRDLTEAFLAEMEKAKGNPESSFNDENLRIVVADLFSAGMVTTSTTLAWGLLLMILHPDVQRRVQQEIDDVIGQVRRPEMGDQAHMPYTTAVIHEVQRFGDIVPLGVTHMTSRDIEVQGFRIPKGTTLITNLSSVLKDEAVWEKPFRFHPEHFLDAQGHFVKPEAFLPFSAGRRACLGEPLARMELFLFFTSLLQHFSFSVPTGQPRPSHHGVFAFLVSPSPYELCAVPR
Chain of LIMK2 (P53671 whole entry): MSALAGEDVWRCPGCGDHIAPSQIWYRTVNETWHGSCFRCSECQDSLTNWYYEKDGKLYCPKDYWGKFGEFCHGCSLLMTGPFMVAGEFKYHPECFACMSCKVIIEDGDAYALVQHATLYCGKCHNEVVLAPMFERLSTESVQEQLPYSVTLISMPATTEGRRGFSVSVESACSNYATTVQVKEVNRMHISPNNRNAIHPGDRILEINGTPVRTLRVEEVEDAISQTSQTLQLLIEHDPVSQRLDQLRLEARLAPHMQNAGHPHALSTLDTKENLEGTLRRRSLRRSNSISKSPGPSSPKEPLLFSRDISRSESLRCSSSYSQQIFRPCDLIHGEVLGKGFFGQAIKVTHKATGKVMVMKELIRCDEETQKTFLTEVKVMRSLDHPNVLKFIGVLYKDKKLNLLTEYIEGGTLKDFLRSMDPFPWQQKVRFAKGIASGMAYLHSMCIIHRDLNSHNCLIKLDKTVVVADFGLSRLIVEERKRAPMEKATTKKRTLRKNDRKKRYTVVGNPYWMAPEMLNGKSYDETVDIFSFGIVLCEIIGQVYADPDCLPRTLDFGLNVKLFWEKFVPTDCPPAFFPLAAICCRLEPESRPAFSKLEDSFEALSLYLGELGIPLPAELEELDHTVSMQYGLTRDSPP
Chain of FAK/PTK2 (Q05397 whole entry): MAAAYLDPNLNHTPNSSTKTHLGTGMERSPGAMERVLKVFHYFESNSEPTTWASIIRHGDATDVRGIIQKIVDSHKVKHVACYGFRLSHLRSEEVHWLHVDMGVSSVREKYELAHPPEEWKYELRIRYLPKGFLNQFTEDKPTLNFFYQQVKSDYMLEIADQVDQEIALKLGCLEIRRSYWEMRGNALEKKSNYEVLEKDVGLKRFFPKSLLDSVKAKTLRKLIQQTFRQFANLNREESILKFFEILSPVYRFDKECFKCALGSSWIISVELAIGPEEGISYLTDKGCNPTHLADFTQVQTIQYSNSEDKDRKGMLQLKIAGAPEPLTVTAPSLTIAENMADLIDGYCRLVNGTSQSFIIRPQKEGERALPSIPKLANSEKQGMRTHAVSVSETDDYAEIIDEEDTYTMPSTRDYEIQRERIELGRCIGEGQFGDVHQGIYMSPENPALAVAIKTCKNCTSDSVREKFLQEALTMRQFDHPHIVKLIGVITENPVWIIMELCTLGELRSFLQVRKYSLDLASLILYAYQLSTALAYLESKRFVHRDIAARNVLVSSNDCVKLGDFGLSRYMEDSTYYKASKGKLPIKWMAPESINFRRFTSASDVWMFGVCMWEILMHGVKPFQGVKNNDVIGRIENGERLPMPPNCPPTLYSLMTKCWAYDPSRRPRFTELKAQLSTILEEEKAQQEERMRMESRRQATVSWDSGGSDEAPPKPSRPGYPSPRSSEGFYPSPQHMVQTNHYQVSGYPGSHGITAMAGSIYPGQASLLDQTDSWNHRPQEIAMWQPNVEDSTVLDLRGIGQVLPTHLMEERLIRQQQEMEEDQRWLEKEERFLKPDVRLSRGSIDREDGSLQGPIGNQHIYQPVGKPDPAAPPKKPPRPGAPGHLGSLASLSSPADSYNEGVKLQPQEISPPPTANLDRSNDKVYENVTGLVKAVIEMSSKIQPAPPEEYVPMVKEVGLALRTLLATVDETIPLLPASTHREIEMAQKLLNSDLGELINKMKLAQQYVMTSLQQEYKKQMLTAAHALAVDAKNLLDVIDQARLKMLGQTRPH
Chain of SBK1 (Q52WX2 whole entry): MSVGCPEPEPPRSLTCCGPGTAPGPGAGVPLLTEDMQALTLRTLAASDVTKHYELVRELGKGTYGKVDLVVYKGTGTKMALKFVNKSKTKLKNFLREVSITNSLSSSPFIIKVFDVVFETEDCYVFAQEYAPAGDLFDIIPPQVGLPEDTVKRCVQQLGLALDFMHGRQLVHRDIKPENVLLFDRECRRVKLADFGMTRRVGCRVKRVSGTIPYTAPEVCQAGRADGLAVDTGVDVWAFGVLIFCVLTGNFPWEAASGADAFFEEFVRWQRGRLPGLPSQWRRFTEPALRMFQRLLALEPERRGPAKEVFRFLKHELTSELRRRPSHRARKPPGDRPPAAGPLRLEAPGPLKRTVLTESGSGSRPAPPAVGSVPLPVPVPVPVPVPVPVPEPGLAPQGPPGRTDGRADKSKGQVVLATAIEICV
Chain of PLK3 (Q9H4B4 whole entry): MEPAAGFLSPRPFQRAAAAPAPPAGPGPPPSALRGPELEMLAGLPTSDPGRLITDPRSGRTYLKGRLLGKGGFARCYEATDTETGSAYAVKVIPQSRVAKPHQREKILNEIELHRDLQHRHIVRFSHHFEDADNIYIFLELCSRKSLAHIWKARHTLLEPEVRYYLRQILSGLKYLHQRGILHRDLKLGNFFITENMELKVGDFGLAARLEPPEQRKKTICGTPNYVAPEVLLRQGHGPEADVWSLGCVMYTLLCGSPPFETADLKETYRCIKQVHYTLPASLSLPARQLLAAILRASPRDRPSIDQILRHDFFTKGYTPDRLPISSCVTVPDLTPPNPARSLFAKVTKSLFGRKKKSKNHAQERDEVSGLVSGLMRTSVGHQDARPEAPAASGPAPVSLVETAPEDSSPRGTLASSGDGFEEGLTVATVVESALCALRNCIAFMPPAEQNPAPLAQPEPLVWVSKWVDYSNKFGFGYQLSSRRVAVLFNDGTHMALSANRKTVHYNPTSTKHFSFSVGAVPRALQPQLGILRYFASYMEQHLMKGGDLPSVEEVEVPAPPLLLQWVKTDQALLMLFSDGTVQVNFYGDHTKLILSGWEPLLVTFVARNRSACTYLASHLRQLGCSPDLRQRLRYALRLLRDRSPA
Chain of OSR1/OXSR1 (O95747 whole entry): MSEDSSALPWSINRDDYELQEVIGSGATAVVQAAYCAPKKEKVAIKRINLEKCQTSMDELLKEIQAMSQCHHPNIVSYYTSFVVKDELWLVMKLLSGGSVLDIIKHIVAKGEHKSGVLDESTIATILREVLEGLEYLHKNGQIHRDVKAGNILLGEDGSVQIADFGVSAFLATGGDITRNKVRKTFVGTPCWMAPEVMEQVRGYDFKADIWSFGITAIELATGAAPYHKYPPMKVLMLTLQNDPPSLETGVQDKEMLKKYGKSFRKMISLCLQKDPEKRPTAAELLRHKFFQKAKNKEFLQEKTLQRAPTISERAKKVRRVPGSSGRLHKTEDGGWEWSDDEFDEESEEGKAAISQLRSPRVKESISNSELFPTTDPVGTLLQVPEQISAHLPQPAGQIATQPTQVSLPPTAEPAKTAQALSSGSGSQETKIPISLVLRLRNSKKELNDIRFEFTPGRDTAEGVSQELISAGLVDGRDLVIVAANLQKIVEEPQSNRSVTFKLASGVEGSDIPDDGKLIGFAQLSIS
Chain of STK25/YSK1 (O00506 whole entry): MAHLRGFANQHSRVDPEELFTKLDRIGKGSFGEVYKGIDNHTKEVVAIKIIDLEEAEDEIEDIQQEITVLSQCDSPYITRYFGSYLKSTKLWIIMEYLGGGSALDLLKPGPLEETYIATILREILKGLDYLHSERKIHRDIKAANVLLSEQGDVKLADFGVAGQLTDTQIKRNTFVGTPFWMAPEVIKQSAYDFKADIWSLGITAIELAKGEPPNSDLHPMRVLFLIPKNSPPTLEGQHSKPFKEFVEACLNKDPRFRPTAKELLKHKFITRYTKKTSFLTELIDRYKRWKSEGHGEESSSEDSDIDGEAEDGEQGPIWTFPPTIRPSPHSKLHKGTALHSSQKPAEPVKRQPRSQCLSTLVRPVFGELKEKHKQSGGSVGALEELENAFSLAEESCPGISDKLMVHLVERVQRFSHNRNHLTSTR

| SMILES | IC50 (CYP2D6) [µM] | % enzyme activity (ALK5/TGFBR1) [%] | remaining activity at 1 µM (ALK5/TGFBR1) [%] | % enzyme activity (FAK/PTK2) [%] | % enzyme activity (PLK3) [%] | % enzyme activity (PRKX) [%] | % enzyme activity (STK25/YSK1) [%] | remaining activity at 1 µM (LIMK2) [%] | remaining activity at 1 µM (NEK5) [%] | remaining activity at 1 µM (OSR1/OXSR1) [%] | remaining activity at 1 µM (PKCzeta) [%] | remaining activity at 1 µM (SBK1) [%] | remaining activity at 1 µM (TESK2) [%] |
| --- | --- | --- | --- | --- | --- | --- | --- | --- | --- | --- | --- | --- | --- |
| COc1cc(-c2cncc(-c3ccc(N4CCN(C)CC4)cc3)c2C)cc(F)c1C(N)=O [Compound 26a, 2-Fluoro-6-methoxy-4-(4-methyl-5-(4-(4-methylpiperazin-1-yl)phenyl)pyridin-3-yl)benzamide] | > 50 | 82.28 | 82.5 | 94.56 | 93.70 | 99.24 | 94.98 | 102 | 98.7 | 93.4 | 91.2 | 94.6 | 93.9 |
| COc1cc(-c2cncc(-c3ccc(N4C[C@@H](C)N(C)[C@@H](C)C4)cc3)c2C)cc(F)c1C(N)=O [Compound 26c, 2-Fluoro-6-methoxy-4-(4-methyl-5-(4-((3R,5S)-3,4,5-trimethylpiperazin-1-yl)phenyl)pyridin-3-yl)benzamide] | > 50 | 96.60 | 97.2 | 97.12 | 94.47 | 90.55 | 94.06 | 97.8 | 93.2 | 95 | 92.5 | 103 | 92.2 |
